Active and inactive are the calls of the source.
Assays:
Format in all cases: functional, cell-based
SK-MEL-28 = test: Growth inhibition of human SK-MEL-28 cells at 10 uM after 48 hrs by sulforhodamine B assay
SNB-75 = test: Growth inhibition of human SNB75 cells at 10 uM after 48 hrs by sulforhodamine B assay
OVCAR-8 = test: Growth inhibition of human OVCAR8 cells at 10 uM after 48 hrs by sulforhodamine B assay
BT-549 = test: Growth inhibition of human BT549 cells at 10 uM after 48 hrs by sulforhodamine B assay
KM12 = test: Growth inhibition of human KM12 cells at 10 uM after 48 hrs by sulforhodamine B assay
OVCAR-5 = test: Growth inhibition of human OVCAR5 cells at 10 uM after 48 hrs by sulforhodamine B assay
A549 = test: Growth inhibition of human A549/ATCC cells at 10 uM after 48 hrs by sulforhodamine B assay
CCRF-CEM = test: Growth inhibition of human CCRF-CEM cells at 10 uM after 48 hrs by sulforhodamine B assay
HCC 2998 = test: Growth inhibition of human HCC2998 cells at 10 uM after 48 hrs by sulforhodamine B assay
NCI-H460 = test: Growth inhibition of human NCI-H460 cells at 10 uM after 48 hrs by sulforhodamine B assay
RXF 393 = test: Growth inhibition of human RXF393 cells at 10 uM after 48 hrs by sulforhodamine B assay
EKVX = test: Growth inhibition of human EKVX cells at 10 uM after 48 hrs by sulforhodamine B assay
SNB-19 = test: Growth inhibition of human SNB19 cells at 10 uM after 48 hrs by sulforhodamine B assay
SF-539 = test: Growth inhibition of human SF539 cells at 10 uM after 48 hrs by sulforhodamine B assay
SF-268 = test: Growth inhibition of human SF268 cells at 10 uM after 48 hrs by sulforhodamine B assay
TK-10 = test: Growth inhibition of human TK10 cells at 10 uM after 48 hrs by sulforhodamine B assay
COLO 205 = test: Growth inhibition of human COLO205 cells at 10 uM after 48 hrs by sulforhodamine B assay
OVCAR-4 = test: Growth inhibition of human OVCAR4 cells at 10 uM after 48 hrs by sulforhodamine B assay
SK-OV-3 = test: Growth inhibition of human SKOV3 cells at 10 uM after 48 hrs by sulforhodamine B assay
UACC-62 = test: Growth inhibition of human UACC62 cells at 10 uM after 48 hrs by sulforhodamine B assay
M14 = test: Growth inhibition of human M14 cells at 10 uM after 48 hrs by sulforhodamine B assay
SK-MEL-2 = test: Growth inhibition of human SK-MEL-2 cells at 10 uM after 48 hrs by sulforhodamine B assay
HOP-92 = test: Growth inhibition of human HOP92 cells at 10 uM after 48 hrs by sulforhodamine B assay
SW-620 = test: Growth inhibition of human SW620 cells at 10 uM after 48 hrs by sulforhodamine B assay
786-0 = test: Growth inhibition of human 786-0 cells at 10 uM after 48 hrs by sulforhodamine B assay
T47D = test: Growth inhibition of human T47D cells at 10 uM after 48 hrs by sulforhodamine B assay
Malme-3M = test: Growth inhibition of human MALME-3M cells at 10 uM after 48 hrs by sulforhodamine B assay
UO-31 = test: Growth inhibition of human UO31 cells at 10 uM after 48 hrs by sulforhodamine B assay
MOLT-4 = test: Growth inhibition of human MOLT4 cells at 10 uM after 48 hrs by sulforhodamine B assay
HCT-116 = test: Growth inhibition of human HCT116 cells at 10 uM after 48 hrs by sulforhodamine B assay
NCI/ADR-RES = test: Growth inhibition of human NCI-ADR-RES cells at 10 uM after 48 hrs by sulforhodamine B assay
SN12C = test: Growth inhibition of human SN12C cells at 10 uM after 48 hrs by sulforhodamine B assay
DU-145 = test: Growth inhibition of human DU145 cells at 10 uM after 48 hrs by sulforhodamine B assay
HT-29 = test: Growth inhibition of human HT-29 cells at 10 uM after 48 hrs by sulforhodamine B assay
HCT-15 = test: Growth inhibition of human HCT15 cells at 10 uM after 48 hrs by sulforhodamine B assay
SR = test: Growth inhibition of human SR cells at 10 uM after 48 hrs by sulforhodamine B assay
MDA-MB-435 = test: Growth inhibition of human MDA-MB-435 cells at 10 uM after 48 hrs by sulforhodamine B assay
A498 = test: Growth inhibition of human A498 cells at 10 uM after 48 hrs by sulforhodamine B assay
PC-3 = test: Growth inhibition of human PC3 cells at 10 uM after 48 hrs by sulforhodamine B assay
MDA-MB-231 = test: Growth inhibition of human MDA-MB-231 cells at 10 uM after 48 hrs by sulforhodamine B assay
SK-MEL-5 = test: Growth inhibition of human SK-MEL-5 cells at 10 uM after 48 hrs by sulforhodamine B assay
NCI-H226 = test: Growth inhibition of human NCI-H226 cells at 10 uM after 48 hrs by sulforhodamine B assay
NCI-H322M = test: Growth inhibition of human NCI-H322M cells at 10 uM after 48 hrs by sulforhodamine B assay
NCI-H23 = test: Growth inhibition of human NCI-H23 cells at 10 uM after 48 hrs by sulforhodamine B assay
HL-60(TB) = test: Growth inhibition of human HL-60(TB) cells at 10 uM after 48 hrs by sulforhodamine B assay
RPMI-8226 = test: Growth inhibition of human RPMI8226 cells at 10 uM after 48 hrs by sulforhodamine B assay
SF-295 = test: Growth inhibition of human SF295 cells at 10 uM after 48 hrs by sulforhodamine B assay
LOX IMVI = test: Growth inhibition of human LOXIMVI cells at 10 uM after 48 hrs by sulforhodamine B assay
MCF7 = test: Growth inhibition of human MCF7 cells at 10 uM after 48 hrs by sulforhodamine B assay
OVCAR-3 = test: Growth inhibition of human OVCAR3 cells at 10 uM after 48 hrs by sulforhodamine B assay
ACHN = test: Growth inhibition of human ACHN cells at 10 uM after 48 hrs by sulforhodamine B assay
Hs-578T = test: Growth inhibition of human Hs 578T cells at 10 uM after 48 hrs by sulforhodamine B assay
NCI-H522 = test: Growth inhibition of human NCI-H522 cells at 10 uM after 48 hrs by sulforhodamine B assay
U-251 = test: Growth inhibition of human U251 cells at 10 uM after 48 hrs by sulforhodamine B assay
CAKI-1 = test: Growth inhibition of human CAKI-1 cells at 10 uM after 48 hrs by sulforhodamine B assay
MDA-MB-468 = test: Growth inhibition of human MDA-MB-468 cells at 10 uM after 48 hrs by sulforhodamine B assay
K562 = test: Growth inhibition of human K562 cells at 10 uM after 48 hrs by sulforhodamine B assay
IGROV-1 = test: Growth inhibition of human IGROV1 cells at 10 uM after 48 hrs by sulforhodamine B assay
HOP-62 = test: Growth inhibition of human HOP62 cells at 10 uM after 48 hrs by sulforhodamine B assay

Measured: growth inhibition (GI)

O=C1/C(=C\c2cccn2C(=O)c2ccc(Cl)s2)c2ccccc2N1c1c(Cl)cccc1Cl
inactive: all assays above
